Data taken from ChEMBL document CHEMBL5036349, “Development of potent dual PDK1/AurA kinase inhibitors for cancer therapy: Lead-optimization, structural insights, and ADME-Tox profile” (Eur J Med Chem, 2021).

Key:
HEK293 = assay: Cytotoxicity against HEK293 cells at 10 uM measured after 24 to 48 hrs by Cell-titer glo assay relative to control; format: cell-based; conditions: human, hek293, 10 µM, time 24-48 hrs
[1] = Cytotoxicity against hTERT cells at 10 uM measured after 24 to 48 hrs by Cell-titer glo assay relative to control; format: cell-based; conditions: human, time 24-48 hrs
[2] = target: 3',5'-cyclic-AMP phosphodiesterase 4C (Homo sapiens) (UniProt Q08493); assay: Inhibition of PDE4C1 (unknown origin) at 10 uM incubated for 60 mins followed by addition of binding agent and measured after 20 mins by Fluorescence Polarization assay relative to control; conditions: time 80.0 min
Sequence of 3',5'-cyclic-AMP phosphodiesterase 4C (Homo sapiens) (Q08493 whole entry): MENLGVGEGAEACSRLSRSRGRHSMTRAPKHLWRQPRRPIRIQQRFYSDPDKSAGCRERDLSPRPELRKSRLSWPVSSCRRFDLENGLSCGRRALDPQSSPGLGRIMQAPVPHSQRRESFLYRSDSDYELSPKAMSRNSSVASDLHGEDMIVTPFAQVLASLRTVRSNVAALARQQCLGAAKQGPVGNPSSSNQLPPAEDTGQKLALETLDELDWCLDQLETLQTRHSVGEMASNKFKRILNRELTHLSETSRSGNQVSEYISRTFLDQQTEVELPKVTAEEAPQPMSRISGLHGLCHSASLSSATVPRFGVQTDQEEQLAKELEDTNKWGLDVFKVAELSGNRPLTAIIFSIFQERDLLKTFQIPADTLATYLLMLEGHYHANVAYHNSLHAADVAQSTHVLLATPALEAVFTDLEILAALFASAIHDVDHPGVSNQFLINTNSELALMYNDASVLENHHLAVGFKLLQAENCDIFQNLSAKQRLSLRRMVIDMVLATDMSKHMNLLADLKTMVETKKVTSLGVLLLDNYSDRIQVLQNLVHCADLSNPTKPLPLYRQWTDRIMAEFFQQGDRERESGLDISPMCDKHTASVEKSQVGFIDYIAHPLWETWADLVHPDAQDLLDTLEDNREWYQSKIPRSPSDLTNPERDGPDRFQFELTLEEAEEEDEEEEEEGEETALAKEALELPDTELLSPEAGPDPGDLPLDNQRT

[3] = target: T1, NAD-dependent protein deacetylase sirtuin-7 (Homo sapiens) (UniProt Q9NRC8); assay: Inhibition of human recombinant SIRT7 at 10 uM incubated for 20 mins followed by mixing and measure after 30 mins by Luminescence assay relative to control; conditions: time 50.0 min
T1 sequence (whole entry): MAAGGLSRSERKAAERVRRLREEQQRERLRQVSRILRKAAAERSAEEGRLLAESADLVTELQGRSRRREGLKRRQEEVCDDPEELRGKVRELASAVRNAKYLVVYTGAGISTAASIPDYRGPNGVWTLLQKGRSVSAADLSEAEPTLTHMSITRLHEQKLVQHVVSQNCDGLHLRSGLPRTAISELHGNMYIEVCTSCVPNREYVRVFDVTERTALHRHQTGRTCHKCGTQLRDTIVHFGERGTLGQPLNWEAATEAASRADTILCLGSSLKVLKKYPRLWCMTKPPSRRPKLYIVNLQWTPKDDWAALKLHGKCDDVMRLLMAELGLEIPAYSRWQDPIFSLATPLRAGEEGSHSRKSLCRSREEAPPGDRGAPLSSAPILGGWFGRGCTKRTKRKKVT

[4] = target: Aurora kinase B (Homo sapiens) (UniProt Q96GD4); assay: Inhibition of Aurora B kinase (unknown origin) at 10 uM in presence of ATP incubated for 30 min followed by addition of kinase glo-reagent measured after 20 mins by Luminescence based plate reader assay relative to control; conditions: time 50.0 min
Sequence of Aurora kinase B (Homo sapiens) (Q96GD4 whole entry): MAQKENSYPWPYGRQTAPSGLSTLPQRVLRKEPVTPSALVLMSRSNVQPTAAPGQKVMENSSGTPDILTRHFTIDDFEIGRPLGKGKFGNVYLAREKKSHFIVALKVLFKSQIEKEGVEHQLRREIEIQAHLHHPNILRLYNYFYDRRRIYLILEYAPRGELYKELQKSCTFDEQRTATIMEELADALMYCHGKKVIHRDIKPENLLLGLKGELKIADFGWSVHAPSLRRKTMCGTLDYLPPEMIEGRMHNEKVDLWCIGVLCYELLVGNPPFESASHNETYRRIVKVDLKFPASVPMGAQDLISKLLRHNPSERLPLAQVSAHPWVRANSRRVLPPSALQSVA

[5] = target: {'v': 'hERG (KCNH2)', 'o': 'p', 'q': 'Inhibition of human ERG at 10 uM'} (Homo sapiens, UniProt Q12809); assay: Inhibition of human ERG at 10 uM relative to control
Sequence of {'v': 'hERG (KCNH2)', 'o': 'p', 'q': 'Inhibition of human ERG at 10 uM'} (Q12809 whole entry): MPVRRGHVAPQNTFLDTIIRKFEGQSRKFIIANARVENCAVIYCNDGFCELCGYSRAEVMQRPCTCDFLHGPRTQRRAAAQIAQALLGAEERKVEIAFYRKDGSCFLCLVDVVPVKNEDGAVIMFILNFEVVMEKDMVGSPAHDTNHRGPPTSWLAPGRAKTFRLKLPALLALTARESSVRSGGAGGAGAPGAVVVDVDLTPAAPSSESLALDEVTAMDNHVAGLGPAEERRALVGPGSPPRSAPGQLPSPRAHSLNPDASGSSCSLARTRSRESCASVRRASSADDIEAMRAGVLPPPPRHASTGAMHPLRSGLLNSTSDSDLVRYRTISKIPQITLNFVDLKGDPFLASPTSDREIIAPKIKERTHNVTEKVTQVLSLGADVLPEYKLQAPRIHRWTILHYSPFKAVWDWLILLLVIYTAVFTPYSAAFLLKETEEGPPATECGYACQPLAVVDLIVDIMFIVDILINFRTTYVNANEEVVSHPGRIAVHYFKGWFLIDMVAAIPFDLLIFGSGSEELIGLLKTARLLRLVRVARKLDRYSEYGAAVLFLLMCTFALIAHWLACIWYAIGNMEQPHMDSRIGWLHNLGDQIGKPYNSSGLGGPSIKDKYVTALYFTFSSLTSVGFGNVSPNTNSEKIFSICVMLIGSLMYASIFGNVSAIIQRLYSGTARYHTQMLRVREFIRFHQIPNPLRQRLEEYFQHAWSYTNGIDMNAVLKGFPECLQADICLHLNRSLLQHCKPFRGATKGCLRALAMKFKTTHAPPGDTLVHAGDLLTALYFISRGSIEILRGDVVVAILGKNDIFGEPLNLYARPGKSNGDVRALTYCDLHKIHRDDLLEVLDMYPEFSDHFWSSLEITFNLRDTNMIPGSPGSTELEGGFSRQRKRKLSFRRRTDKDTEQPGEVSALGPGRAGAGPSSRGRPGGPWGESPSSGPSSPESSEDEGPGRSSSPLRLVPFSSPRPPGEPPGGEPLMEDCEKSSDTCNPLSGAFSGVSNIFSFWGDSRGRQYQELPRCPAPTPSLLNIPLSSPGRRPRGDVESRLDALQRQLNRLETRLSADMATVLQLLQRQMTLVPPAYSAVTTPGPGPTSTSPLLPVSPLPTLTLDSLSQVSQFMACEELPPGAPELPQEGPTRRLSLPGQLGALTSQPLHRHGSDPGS

[6] = target: Histone deacetylase 4 (Homo sapiens) (UniProt P56524); assay: Inhibition on human recombinant HDAC4 at 10 uM measured after 20 min by luminescence glo assay
Sequence of Histone deacetylase 4 (Homo sapiens) (P56524 whole entry): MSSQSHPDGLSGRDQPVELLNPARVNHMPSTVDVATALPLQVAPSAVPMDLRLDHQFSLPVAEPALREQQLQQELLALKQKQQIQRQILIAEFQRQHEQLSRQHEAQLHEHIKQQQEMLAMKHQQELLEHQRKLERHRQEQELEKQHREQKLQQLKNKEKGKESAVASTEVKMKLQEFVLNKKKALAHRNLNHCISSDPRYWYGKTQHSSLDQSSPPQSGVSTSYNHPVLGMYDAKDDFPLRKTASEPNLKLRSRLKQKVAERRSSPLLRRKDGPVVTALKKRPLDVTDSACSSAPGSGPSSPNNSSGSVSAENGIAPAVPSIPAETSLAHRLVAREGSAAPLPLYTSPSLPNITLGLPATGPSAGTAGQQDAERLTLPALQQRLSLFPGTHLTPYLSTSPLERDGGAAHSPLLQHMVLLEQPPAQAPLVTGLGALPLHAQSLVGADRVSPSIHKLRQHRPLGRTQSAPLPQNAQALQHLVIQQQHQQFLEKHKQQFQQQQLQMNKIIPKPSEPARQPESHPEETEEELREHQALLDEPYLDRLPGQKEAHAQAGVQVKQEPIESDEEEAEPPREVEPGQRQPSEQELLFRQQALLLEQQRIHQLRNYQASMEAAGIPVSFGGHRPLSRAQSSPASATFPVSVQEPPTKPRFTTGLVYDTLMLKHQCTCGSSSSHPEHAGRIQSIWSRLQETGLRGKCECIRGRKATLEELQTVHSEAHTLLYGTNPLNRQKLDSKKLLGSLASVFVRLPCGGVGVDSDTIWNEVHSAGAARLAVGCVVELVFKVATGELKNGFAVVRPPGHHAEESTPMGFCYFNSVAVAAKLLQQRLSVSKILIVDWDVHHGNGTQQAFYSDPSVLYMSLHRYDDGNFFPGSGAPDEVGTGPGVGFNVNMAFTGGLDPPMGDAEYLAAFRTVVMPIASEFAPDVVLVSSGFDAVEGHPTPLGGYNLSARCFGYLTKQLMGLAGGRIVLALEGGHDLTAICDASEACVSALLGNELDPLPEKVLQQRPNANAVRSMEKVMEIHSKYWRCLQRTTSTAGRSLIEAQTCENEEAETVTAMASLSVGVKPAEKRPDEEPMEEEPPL

[7] = target: T2, Protein deacetylase HDAC6 (Homo sapiens) (UniProt Q9UBN7); assay: Inhibition on human recombinant HDAC6 at 10 uM measured after 20 min by luminescence glo assay
T2 sequence (whole entry): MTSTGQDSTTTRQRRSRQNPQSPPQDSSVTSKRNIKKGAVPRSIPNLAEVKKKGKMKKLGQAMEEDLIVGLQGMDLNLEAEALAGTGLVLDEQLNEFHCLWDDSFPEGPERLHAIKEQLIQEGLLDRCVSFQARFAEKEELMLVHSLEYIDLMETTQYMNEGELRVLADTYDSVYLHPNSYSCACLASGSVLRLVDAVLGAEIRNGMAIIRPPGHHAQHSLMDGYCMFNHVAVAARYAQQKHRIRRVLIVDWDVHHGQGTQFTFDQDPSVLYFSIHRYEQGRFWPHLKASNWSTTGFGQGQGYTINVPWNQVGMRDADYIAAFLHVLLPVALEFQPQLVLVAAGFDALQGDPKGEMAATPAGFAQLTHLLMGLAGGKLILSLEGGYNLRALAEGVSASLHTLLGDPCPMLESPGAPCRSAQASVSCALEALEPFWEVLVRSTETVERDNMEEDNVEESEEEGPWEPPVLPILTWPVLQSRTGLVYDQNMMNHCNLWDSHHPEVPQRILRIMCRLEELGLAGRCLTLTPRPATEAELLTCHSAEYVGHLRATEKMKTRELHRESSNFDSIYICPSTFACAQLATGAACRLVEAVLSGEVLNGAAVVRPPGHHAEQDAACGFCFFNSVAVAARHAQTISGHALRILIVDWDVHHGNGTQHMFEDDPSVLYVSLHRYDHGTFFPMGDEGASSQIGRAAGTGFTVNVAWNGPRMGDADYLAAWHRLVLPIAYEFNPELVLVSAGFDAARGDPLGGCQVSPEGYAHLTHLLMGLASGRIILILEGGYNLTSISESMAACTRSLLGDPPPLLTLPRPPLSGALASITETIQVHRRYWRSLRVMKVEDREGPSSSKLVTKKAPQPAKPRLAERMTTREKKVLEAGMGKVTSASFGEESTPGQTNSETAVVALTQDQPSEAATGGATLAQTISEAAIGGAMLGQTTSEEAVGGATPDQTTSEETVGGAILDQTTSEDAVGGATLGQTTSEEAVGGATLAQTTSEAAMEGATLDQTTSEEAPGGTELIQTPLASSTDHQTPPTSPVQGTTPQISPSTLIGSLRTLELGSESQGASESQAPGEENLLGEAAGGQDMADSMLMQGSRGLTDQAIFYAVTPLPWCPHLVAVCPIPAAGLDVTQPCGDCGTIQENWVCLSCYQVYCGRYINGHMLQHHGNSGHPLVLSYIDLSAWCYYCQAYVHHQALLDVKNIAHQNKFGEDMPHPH

[8] = target: T3, Histone deacetylase 8 (Homo sapiens) (UniProt Q9BY41); assay: Inhibition on human recombinant HDAC8 at 10 uM measured after 20 min by luminescence glo assay
T3 sequence (whole entry): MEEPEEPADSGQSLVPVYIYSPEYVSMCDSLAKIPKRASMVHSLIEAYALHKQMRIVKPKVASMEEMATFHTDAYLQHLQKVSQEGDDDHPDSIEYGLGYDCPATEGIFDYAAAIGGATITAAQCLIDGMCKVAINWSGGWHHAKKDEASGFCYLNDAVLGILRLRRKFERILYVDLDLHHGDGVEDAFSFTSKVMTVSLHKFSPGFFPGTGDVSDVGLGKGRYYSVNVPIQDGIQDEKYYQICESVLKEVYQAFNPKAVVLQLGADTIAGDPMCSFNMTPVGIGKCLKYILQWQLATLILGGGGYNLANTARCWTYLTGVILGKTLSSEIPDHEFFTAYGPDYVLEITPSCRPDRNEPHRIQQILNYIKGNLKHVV

[9] = target: Histone deacetylase 9 (Homo sapiens) (UniProt Q9UKV0); assay: Inhibition on human recombinant HDAC9 at 10 uM measured after 20 min by luminescence glo assay
Sequence of Histone deacetylase 9 (Homo sapiens) (Q9UKV0 whole entry): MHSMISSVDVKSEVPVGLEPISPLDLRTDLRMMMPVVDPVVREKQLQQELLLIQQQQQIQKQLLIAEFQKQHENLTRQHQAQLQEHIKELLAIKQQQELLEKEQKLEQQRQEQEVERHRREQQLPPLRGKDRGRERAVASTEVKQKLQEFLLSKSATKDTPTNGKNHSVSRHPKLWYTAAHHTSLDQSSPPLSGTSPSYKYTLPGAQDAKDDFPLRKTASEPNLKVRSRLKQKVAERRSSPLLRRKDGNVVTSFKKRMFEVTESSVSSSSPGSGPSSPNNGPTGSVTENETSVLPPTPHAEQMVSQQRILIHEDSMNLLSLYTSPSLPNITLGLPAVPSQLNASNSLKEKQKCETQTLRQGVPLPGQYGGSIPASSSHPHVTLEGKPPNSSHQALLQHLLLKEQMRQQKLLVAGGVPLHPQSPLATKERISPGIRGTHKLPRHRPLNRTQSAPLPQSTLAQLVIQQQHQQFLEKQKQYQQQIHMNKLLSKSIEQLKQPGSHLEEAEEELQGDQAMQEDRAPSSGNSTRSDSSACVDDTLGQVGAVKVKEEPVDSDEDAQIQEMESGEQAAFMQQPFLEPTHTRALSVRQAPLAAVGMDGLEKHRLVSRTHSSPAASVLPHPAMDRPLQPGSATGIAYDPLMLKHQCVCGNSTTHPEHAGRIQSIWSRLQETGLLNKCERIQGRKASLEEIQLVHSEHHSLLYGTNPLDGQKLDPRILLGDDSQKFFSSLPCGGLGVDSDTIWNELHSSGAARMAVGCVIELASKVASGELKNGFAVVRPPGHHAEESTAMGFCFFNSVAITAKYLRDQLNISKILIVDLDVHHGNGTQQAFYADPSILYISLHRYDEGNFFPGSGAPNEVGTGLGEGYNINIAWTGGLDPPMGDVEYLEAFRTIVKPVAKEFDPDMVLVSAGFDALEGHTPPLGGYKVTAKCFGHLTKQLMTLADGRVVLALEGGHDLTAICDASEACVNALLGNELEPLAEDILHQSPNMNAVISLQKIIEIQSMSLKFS

Aurora kinase A = target: T4, Aurora kinase A (Homo sapiens, UniProt O14965); assay: Inhibition of recombinant full length human His-tagged AURA expressed in Baculovirus expression system in presence of ATP measured by […]
T4 sequence (O14965 whole entry): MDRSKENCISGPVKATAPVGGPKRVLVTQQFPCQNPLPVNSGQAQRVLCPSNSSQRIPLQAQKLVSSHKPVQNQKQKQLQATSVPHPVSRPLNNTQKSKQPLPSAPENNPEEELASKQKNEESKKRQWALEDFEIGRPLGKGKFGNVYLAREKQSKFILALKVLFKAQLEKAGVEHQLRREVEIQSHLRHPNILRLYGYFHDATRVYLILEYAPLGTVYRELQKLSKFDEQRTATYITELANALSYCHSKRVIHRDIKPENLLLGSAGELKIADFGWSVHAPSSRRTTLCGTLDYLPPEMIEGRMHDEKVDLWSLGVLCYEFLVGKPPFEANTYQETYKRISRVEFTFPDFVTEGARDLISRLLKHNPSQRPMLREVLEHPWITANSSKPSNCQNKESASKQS

[10] = target: 3-phosphoinositide-dependent protein kinase 1 (Homo sapiens) (UniProt O15530); assay: Inhibition of recombinant full length human His-tagged PDK1 expressed in Baculovirus expression system in presence of ATP measured by […]
NCI-H69 [11] = assay: Cytotoxicity against human NCI-H69 cells at 30 uM assessed as cell proliferation rate measured after 72 hrs by MTT assay relative to control; format: functional
MCF7 = assay: Cytotoxicity against human MCF7 cells measured after 72 hrs by MTT assay; format: functional, cell-based; conditions: MCF7, 72 h
CAKI-1 = assay: Cytotoxicity against human CAKI-1 cells measured after 72 hrs by MTT assay; format: functional, cell-based; conditions: CAKI-1, 72 h
786-0 = assay: Cytotoxicity against human 786-0 cells measured after 72 hrs by MTT assay; format: functional, cell-based; conditions: 786-0, 72 h
IGROV-1 = assay: Cytotoxicity against human IGROV-1 cells measured after 72 hrs by MTT assay; format: functional, cell-based; conditions: IGROV-1, 72 h
PC-3 = assay: Cytotoxicity against human PC-3 cells measured after 72 hrs by MTT assay; format: functional, cell-based; conditions: PC-3, 72 h
HCT-116 = assay: Cytotoxicity against human HCT-116 cells measured after 72 hrs by MTT assay; format: functional, cell-based; conditions: HCT-116, 72 h
NCI-H69 [12] = assay: Cytotoxicity against human NCI-H69 cells measured after 72 hrs by MTT assay; format: functional, cell-based; conditions: NCI-H69, 72 h
NCI-H82 = assay: Cytotoxicity against human NCI-H82 cells measured after 72 hrs by MTT assay; format: functional, cell-based; conditions: NCI-H82, 72 h
Rec1 = assay: Cytotoxicity against human REC1 cells measured after 72 hrs by MTT assay; format: functional, cell-based; conditions: Rec1, 72 h
TC-32 [13] = assay: Cytotoxicity against human TC-32 cells measured after 72 hrs by MTT assay; format: functional, cell-based; conditions: TC-32, 72 h
SK-N-MC = assay: Cytotoxicity against human SK-N-MC cells measured after 72 hrs by MTT assay; format: functional, cell-based
[14] = Cytotoxicity against human 6647 cells measured after 72 hrs by MTT assay; format: functional, cell-based; conditions: Homo sapiens, 6647, 72 h
[15] = Cytotoxicity against human TC71 cells measured after 72 hrs by MTT assay; format: functional, cell-based; conditions: TC-71, 72 h
A673 = assay: Cytotoxicity against human A673 cells measured after 72 hrs by MTT assay; format: functional, cell-based; conditions: A673, 72 h
TC-32 [16] = assay: Cytotoxicity against human TC-32 cells at 30 uM assessed as cell proliferation rate measured after 72 hrs by MTT assay relative to control; format: functional

## O=C(CCCNC(=O)c1cccn(Cc2ccc(F)c(F)c2)c1=O)Nc1ccc2c(c1)/C(=C/c1cnc[nH]1)C(=O)N2
HEK293
  Activity: < 25%
[1]
  Activity: < 25%
[2]
  inhibition: < 30%
[3]
  inhibition: < 30%
[4]
  inhibition: < 20%
[5]
  inhibition at 10 µM: 53%
[6]
  inhibition: < 30%
[7]
  inhibition: < 30%
[8]
  inhibition: < 30%
[9]
  inhibition: < 30%

## O=C(CCNC(=O)c1cccn(Cc2ccc(F)c(F)c2)c1=O)Nc1ccc2c(c1)/C(=C\c1ccc(F)cc1)C(=O)N2
Aurora kinase A
  IC50: Not Active
[10]
  IC50: Not Active

## CN1CCN(CC(=O)c2c[nH]c3ccc(NC(=O)[C@H](NC(=O)c4cccn(Cc5ccc(F)c(F)c5)c4=O)c4ccccc4)cc23)CC1
Aurora kinase A
  IC50: Not Active
[10]
  IC50: Not Active

## Cc1c(Br)cc(C(=O)NCC(=O)Nc2ccc3c(c2)/C(=C/c2cnc[nH]2)C(=O)N3)c(=O)n1Cc1ccc(F)c(F)c1
HEK293
  Activity: < 25%
[1]
  Activity: < 25%
Aurora kinase A; read-out: IC50
  IC50: > 10 µM
[2]
  inhibition: < 30%
[3]
  inhibition: < 30%
[4]
  inhibition: < 20%
[6]
  inhibition: < 30%
[7]
  inhibition: < 30%
[8]
  inhibition: < 30%
[9]
  inhibition: < 30%

## O=C1Nc2ccc(NC(=O)c3cccc(NC(=O)c4cccn(Cc5ccc(F)c(F)c5)c4=O)c3)cc2C1=Cc1cccs1
Aurora kinase A
  IC50: Not Active
[10]
  IC50: Not Active

## O=C(CCNC(=O)c1cccn(Cc2ccc(F)c(F)c2)c1=O)Nc1ccc2c(c1)C(=Cc1cccs1)C(=O)N2
Aurora kinase A
  IC50: Not Active

## O=C(CCCNC(=O)c1cccn(Cc2ccc(F)c(F)c2)c1=O)Nc1ccc2c(c1)C(=Cc1cccs1)C(=O)N2
Aurora kinase A
  IC50: Not Active

## O=C(CCNC(=O)c1cccn(Cc2ccc(F)c(F)c2)c1=O)Nc1ccc2c(c1)/C(=C/c1ncc[nH]1)C(=O)N2
Aurora kinase A
  IC50: Not Active

## CCN(C)CC(=O)c1c[nH]c2ccc(NC(=O)[C@H](NC(=O)c3cccn(Cc4ccc(F)c(F)c4)c3=O)c3ccccc3)cc12
Aurora kinase A
  IC50: Not Active
[10]
  IC50: Not Active

## O=C1Nc2ccc(NC(=O)c3cccc(NC(=O)c4cccn(Cc5ccc(F)c(F)c5)c4=O)c3)cc2/C1=C/c1cnc[nH]1
HEK293
  Activity: < 25%
[1]
  Activity: < 25%
Aurora kinase A; read-out: IC50
  IC50: > 10 µM
[2]
  inhibition: < 30%
[3]
  inhibition: < 30%
[4]
  inhibition: < 20%
[6]
  inhibition: < 30%
[7]
  inhibition: < 30%
[8]
  inhibition: < 30%
[9]
  inhibition: < 30%

## O=C(N[C@@H](COc1ccc2[nH]c(=O)[nH]c2c1)c1ccccc1)c1cccn(Cc2ccc(F)c(F)c2)c1=O
NCI-H69 [11]
  Emax at 30 µM: 80%
MCF7
  IC50: > 30 µM
CAKI-1
  IC50: > 30 µM
786-0
  IC50: > 30 µM
IGROV-1
  IC50: > 30 µM
PC-3
  IC50: > 30 µM
HCT-116
  IC50: > 30 µM
NCI-H69 [12]
  IC50: 13.9 µM
NCI-H82
  IC50: > 30 µM
Rec1
  IC50: > 30 µM
TC-32 [13]
  IC50: 13.9 µM
SK-N-MC
  IC50: > 30 µM
[14]
  IC50: > 30 µM
[15]
  IC50: > 30 µM
A673
  IC50: > 30 µM
TC-32 [16]
  Emax at 30 µM: 80%
